Measured values from PMC6018403 (Frontiers in Pharmacology, 2018).
Where two headings read alike, the source gives them in different places.

Experiment: Multi-component pharmacokinetic study of GQD, GQD-GC and single herb extracts in rats (plasma, LC/MS/MS)
Type: in vivo, Sprague-Dawley rats
Settings: for AUC(0-t) / Cmax / half-life / Tmax: male, Sprague-Dawley, rat
Procedure: Male Sprague-Dawley rats (220–250 g) were used for PK study, and the details were described in Supplemental Data. All procedures were in accordance with the National Institutes of Health Guide for the Care and Use of Laboratory Animals.
For PK study of GQD and its component herbs, rats were randomly divided into six groups (n = 10 for each group) before oral administration.
All blood samples were immediately centrifuged at 6,000 rpm (4°C) for 20 min to obtain plasma. The plasma samples were stored at −80°C.
A Finnigan TSQ Quantum triple quadrupole mass spectrometer was connected to a Surveyor HPLC via ESI interface (ThermoFisher). High purity nitrogen was used as the sheath and auxiliary gas; Ultra-high purity argon was used as the collision gas (1.5 mTorr). Q1 and Q3 quadrupoles were set at unit resolution. […] The column temperature was 40°C. The mobile phase consisted of acetonitrile containing 2% (v/v) methanol (A) and water containing 0.1% (v/v) formic acid (B). […] An aliquot of 5 μL was injected for analysis. UV spectra were obtained by scanning from 200 to 400 nm. The mass spectrometer was operated in the (+)-ESI mode. The optimized parameters were as follows: sheath gas (N2), 50 arb; auxiliary gas (N2), 5 arb; spray voltage, 4.0 kV; capillary temperature, 330°C; collision energy, see Table S1. Analytes were detected in the selected reaction monitoring (SRM) mode. Data were processed by Xcalibur 2.0.7 software (ThermoFisher).
LC/MS/MS calibration and quantitation data were processed with Xcalibur 2.0.7 software (ThermoFisher). The maximal plasma concentrations (Cmax) and their time of occurrence (Tmax) were obtained directly from the measured data. Other pharmacokinetic parameters were calculated by non-compartment or compartment models using WinNonlin® software (v6.1, Pharsight). Unless otherwise stated, results were expressed as the mean ± SD. Statistical significance in differences of the means was determined by Student's t–test, with a significance level of P < 0.05.
Herbal materials and extracts.
The four component herbs, Puerariae Lobatae Radix (Ge-Gen, GG), Scutellariae Radix (Huang-Qin, HQ), Coptidis Rhizoma (Huang-Lian, HL), and Glycyrrhizae Radix et Rhizoma Praeparata cum Melle (Gan-Cao, GC) were purchased from Tianheng Pharmacy. GQD was prepared by decocting the four component herbs […]
pre-extraction of Ge-Gen using 200 mL of water for 0.5 h. The decoctions were combined, filtered, and concentrated in vacuum at 50 °C. GQD-GC was prepared using the same procedure, except that Gan-Cao was removed from the formula. Final concentration of the GQD-GC extract was equivalent to 1.0 g of the crude drugs per mL. For single herb extracts, the herbs were decocted in 8-fold volume of water for […]
Final concentrations of the extracts were 1.0 g/mL for Ge-Gen, and 0.5 g/mL for Huang-Qin, Huang-Lian and […]
For pharmacokinetic study, Male Sprague-Dawley rats (220-250 g) were obtained from the Laboratory Animal Center of Peking University Health Science Center. The […]
The rats had free access to tap water and soy-free custom diet (Ke’ao Xieli Co.). All procedures were in accordance with the National Institutes of Health Guide for the Care and Use of Laboratory Animals […]
Experimental details for the PK study
1. Preparation of internal standard solution, calibration standard solutions, and quality control solutions […]
internal standard solution. Reference standard compounds were dissolved in the internal standard solution to prepare individual stock solutions (1.0 mg/mL). These […]
each compound. The standard solution was then serially diluted to obtain calibration […]
Quality control stock solutions were prepared at three concentration levels as high QC (HQC), middle QC (MQC), and low QC (LQC), based on linear ranges of the analytes.
2.1. Sample preparation for pharmacokinetic study
The calibration standard and quality control solutions for pharmacokinetic study were […]

[1] = plasma, po, 16.5 g/kg, GQD-GC group (GQD without Gan-Cao): rats, oral 16.5 g/kg, plasma, read-out: AUClast
[2] = plasma, po, 18.9 g/kg, GQD group: rats, oral GQD extract 18.9 g/kg, plasma, read-out: AUClast
[3] = GQD group: rats, oral GQD extract 18.9 g/kg, plasma, read-out: Cmax
[4] = GQD group: rats, oral GQD extract 18.9 g/kg, plasma, read-out: T1/2 (converted)
[5] = GQD group: rats, oral GQD extract 18.9 g/kg, plasma, read-out: Tmax
[6] = GQD-GC group (GQD without Gan-Cao): rats, oral 16.5 g/kg, plasma, read-out: Cmax
[7] = GQD-GC group (GQD without Gan-Cao): rats, oral 16.5 g/kg, plasma, read-out: T1/2 (converted)
[8] = GQD-GC group (GQD without Gan-Cao): rats, oral 16.5 g/kg, plasma, read-out: Tmax
[9] = in vivo, po, 3.54 g/kg, AUClast

Row | SMILES | AUC(0-t) [1] [ng·h/mL] | AUC(0-t) [2] [ng·h/mL] | Cmax [3] [ng/mL] | half-life [4] [min] | Tmax [5] [min] | Cmax [6] [ng/mL] | half-life [7] [min] | Tmax [8] [min] | Cmax (in vivo, po, 3.54 g/kg) [ng/mL] | Tmax (in vivo, po, 3.54 g/kg) [min] | half-life (in vivo, po, 3.54 g/kg) [min] | AUC(0-t) [9] [ng·h/mL] | also measured
1 | COc1ccc(-c2coc3c(C4OC(COC5OCC(O)(CO)C5O)C(O)C(O)C4O)c(O)ccc3c2=O)cc1 (stereo not drawn) [Compound 5, formononetin 8-C-apiofuranosyl(1,6)glucoside] | 26 ± 7.29 | 168 ± 83.3 | 16 ± 5.44 | 422 ± 139 | 45.6 ± 226 | 6.87 ± 2.05 | 314 ± 81 | 31.2 ± 39 |  |  |  |  | AUC(0-t) (plasma, po, 9.45 g/kg, GG (Ge-Gen) group: rats, oral extract 9.45 g/kg, plasma, read-out: AUClast): 85 ± 19.2 ng·h/mL; Cmax (GG (Ge-Gen) group: rats, oral extract 9.45 g/kg, plasma, read-out: Cmax): 18.4 ± 5.1 ng/mL; half-life (GG (Ge-Gen) group: rats, oral extract 9.45 g/kg, plasma, read-out: T1/2 (converted)): 539 ± 140 min; Tmax (GG (Ge-Gen) group: rats, oral extract 9.45 g/kg, plasma, read-out: Tmax): 23.4 ± 10.2 min; bioavailability in the GQD group compared with the Ge-Gen group (rats, oral): higher
2 | COc1c(O)cc2oc(-c3ccccc3)cc(=O)c2c1O [Compound 9, oroxylin A] |  |  |  |  |  |  |  |  | 43.6 ± 3.04 | 4.8 ± 31.8 | 317 ± 140 | 351 ± 174 | 
3 | COc1c(O)cc(OC2OC(CO)C(O)C(O)C2O)c2c(=O)cc(-c3ccccc3)oc12 (stereo not drawn) [Compound 13, wogonin 5-O-glucoside] | 28.2 ± 3.04 | 53 ± 7.56 | 1.83 ± 0.14 | 968 ± 253 | 120 ± 77.4 | 5.17 ± 0.26 | 787 ± 238 | 120 ± 254 |  |  |  |  | AUC(0-t) (plasma, po, 3.54 g/kg, HQ (Huang-Qin) group: rats, oral extract 3.54 g/kg, plasma, read-out: AUClast): 42.8 ± 6.01 ng·h/mL; Cmax (HQ (Huang-Qin) group: rats, oral extract 3.54 g/kg, plasma, read-out: Cmax): 1.92 ± 0.13 ng/mL; half-life (HQ (Huang-Qin) group: rats, oral extract 3.54 g/kg, plasma, read-out: T1/2 (converted)): 965 ± 327 min; Tmax (HQ (Huang-Qin) group: rats, oral extract 3.54 g/kg, plasma, read-out: Tmax): 6 ± 4.2 min
4 | O=c1cc(-c2ccccc2)oc2cc(O)cc(O)c12 [Compound 18, chrysin] |  |  |  |  |  |  |  |  | 4.1 ± 0.44 | 34.8 ± 13.8 | 292 ± 85.8 | 41.3 ± 1.34 | 
